Measurements: patent US4468387A, “Pesticidal N-sulfonyl N'-oxalate phosphorodiamido(di)thioates” (Rohm and Haas Company, priority 1982, dated 1984)

Experiments:
Type in all cases: in vivo
[1] = test system: Two-spotted spider mite (Tetranychus urticae); experiment: mite test, sprayed infested bean leaf discs (two-spotted spider mite); conditions: 600 ppm; leaf disc spray; percent kill after 24 hours
Excerpt: (§1) A test solution containing 600 ppm of test compound can be made by dissolving the test compound in a solvent (acetone:methanol, 1:1), adding surfactant and then water to give an acetone:methanol:water system of 10:10:80. A 1:1 mixture of an alkylarylpolyetheralcohol (commercially available under the trademark Triton X-155) and a modified phthalic glycerol alkyl resin (commercially available under the trademark Triton B-1956) can be utilized at the equivalent of one ounce per 100 gallons of test solution and a surfactant.
For the mite test, infested bean (Phaseolus limeanus) leaf discs (1.25 inches in diameter) containing about 50 mites are placed in a Petri dish lid on a moistened piece of cotton. The leaves are then sprayed with the test solution using a rotating turntable. They are held for 24 hours and then the percent kill is determined.

[2] = test system: Southern armyworm (Spodoptera eridania); experiment: armyworm test, sprayed detached bean leaves, third instar southern armyworm larvae; conditions: 600 ppm, leaf spray, percent kill after 48 hours
Excerpt: as §1
For the armyworm test, detached bean leaves on pieces of moistened filter paper are sprayed as above for the mite test in similar dishes and allowed to dry. The dishes are infested with 10 third instar southern armyworm larvae. The dishes are covered. After holding for 48 hours, the percent kill is obtained.

[3] = test system: Southern root-knot nematode (Meloidogyne incognita); experiment: nematode test, inoculated soil, cucumber root knots; conditions: about 30 ppm by volume in soil; knots on cucumber roots after about 23 days
Excerpt: as §1
For the nematode test, soil is homogeneously inoculated with a macerated blend of tomato roots heavily knotted with the root knot nematode. Ten milliliters of the test solution are added to 200 milliliters of the inoculated soil in a 16 oz. jar to give a concentration by volume of about 30 ppm. The jar is then shaken to insure thorough mixing, immediately uncapped, and allowed to air for 24 hours. The soil is then placed into a 3 inch plastic pot after which time 3 cucumber (Cucumis sativus) seeds are planted. About 23 days thereafter, the cucumber plants are removed from the soil and the root system examined for the presence of knots. A total of 15 knots or less is considered as a measure of control.

Row | Structure (SMILES) | Insecticidal Screening Results, % Control, Two-Spotted Mite [1] [%] | Insecticidal Screening Results, % Control, Southern Armyworm [2] [%] | Nema (control of root-knot nematode) [3]
1 | CCC(C)SP(=O)(N(C)C(=O)C(=O)OCc1ccccc1)N(C)S(C)(=O)=O (stereo not drawn) [Example 14, N'-Benzyloxycarbonylcarbonyl N-methanesulfonyl N,N'-dimethyl S-(1-methylpropyl) phosphorodiamidothioate] | 100 | 100 | + (A total of 15 knots or less is considered as a measure of control)
2 | CCSCCOC(=O)C(=O)N(C)P(=O)(SC(C)CC)N(C)S(C)(=O)=O (stereo not drawn) [Example 11, N'-(2-Ethylthioethoxy)carbonylcarbonyl N-methanesulfonyl N,N'-dimethyl S-(1-methylpropyl) phosphorodiamidothioate] | 100 | 100 | + (A total of 15 knots or less is considered as a measure of control)
3 | CCCSC(=O)C(=O)N(C)P(=O)(SC(C)CC)N(C)S(C)(=O)=O (stereo not drawn) [Example 7, N-Methanesulfonyl N,N'-dimethyl S-(1-methylpropyl) N'-(propylthio)carbonylcarbonyl phosphorodiamidothioate] | 100 | 100 | + (A total of 15 knots or less is considered as a measure of control)
4 | CCC(C)SP(=O)(N(C)C(=O)C(=O)Oc1ccc(SC)cc1)N(C)S(C)(=O)=O (stereo not drawn) [Example 8, N-Methanesulfonyl N,N'-dimethyl S-(1-methylpropyl N'-(4-methylthiophenoxy)carbonylcarbonyl phosphorodiamidothioate] | 100 | 100 | + (A total of 15 knots or less is considered as a measure of control)
5 | CCC(C)SP(=O)(N(C)C(=O)C(=O)OCCCl)N(C)S(C)(=O)=O (stereo not drawn) [Example 10, N'-(2-Chloroethoxy)carbonylcarbonyl N-methanesulfonyl N,N'-dimethyl S-(1-methylpropyl) phosphorodiamidothioate] | 100 | 100 | + (A total of 15 knots or less is considered as a measure of control)
6 | CCC(C)SP(=O)(N(C)C(=O)C(=O)OC1CCCCC1)N(C)S(C)(=O)=O (stereo not drawn) [Example 4, N'-Cyclohexyloxycarbonylcarbonyl N-methanesulfonyl N,N'-dimethyl S-(1-methylpropyl) phosphorodiamidothioate] | 100 | 30 | + (A total of 15 knots or less is considered as a measure of control)
7 | CCC(C)OC(=O)C(=O)N(C)P(=O)(SC(C)CC)N(C)S(C)(=O)=O (stereo not drawn) [Example 9, N-Methanesulfonyl N,N'-dimethyl S-(1-methylpropyl) N'-(1-methylpropyloxy)carbonylcarbonyl phosphorodiamidothioate] | 100 | 100 | + (A total of 15 knots or less is considered as a measure of control)
8 | CCC(C)SP(=O)(N(C)C(=O)C(=O)OCCOC)N(C)S(C)(=O)=O (stereo not drawn) [Example 13, N-Methanesulfonyl N'-(2-methoxyethoxy)carbonylcarbonyl N,N'-dimethyl S-(1-methylpropyl) phosphorodiamidothioate] | 100 | 100 | + (A total of 15 knots or less is considered as a measure of control)
9 | CCC(C)SP(=O)(N(C)C(=O)C(=O)OC(C)(C)C)N(C)S(C)(=O)=O (stereo not drawn) [Example 3, N-Methanesulfonyl N,N'-dimethyl N'-[(1,1-dimethylethoxy)carbonylcarbonyl] S-(1-methylpropyl) phosphorodiamidothioate] | 100 | 100 | + (A total of 15 knots or less is considered as a measure of control)
10 | CCC(C)SP(=O)(N(C)C(=O)C(=O)OC(C)C)N(C)S(C)(=O)=O (stereo not drawn) [Example 1, N-Methanesulfonyl N,N'-dimethyl N'-[(1-methylethoxycarbonyl)carbonyl] S-(1-methylpropyl) phosphorodiamidothioate] | 100 | 100 | + (A total of 15 knots or less is considered as a measure of control)
11 | CCC(C)SP(=O)(N(C)C(=O)C(=O)OC)N(C)S(C)(=O)=O (stereo not drawn) [Example 2, N-Methanesulfonyl N'-[(methoxycarbonyl)carbonyl] N,N'-dimethyl S-(1-methylpropyl) phosphorodiamidothioate] | 100 | 100 | + (A total of 15 knots or less is considered as a measure of control)
12 | CCC(C)SP(=O)(N(C)C(=O)C(=O)SC1CCCCC1)N(C)S(C)(=O)=O (stereo not drawn) [Example 12, N'-(Cyclohexylthio)carbonylcarbonyl N-methansulfonyl N,N'-dimethyl S-(1-methylpropyl) phosphorodiamidothioate] | 100 | 100 | + (A total of 15 knots or less is considered as a measure of control)
13 | CCC(C)SP(=O)(N(C)C(=O)C(=O)Oc1ccccc1)N(C)S(C)(=O)=O (stereo not drawn) [Example 6, N-Methanesulfonyl N,N'-dimethyl S-(1-methylpropyl) N'-phenoxycarbonylcarbonyl phosphorodiamidothioate] | 100 | 100 | + (A total of 15 knots or less is considered as a measure of control)
